Among the data in US8822517B2, “Arylosulfonamides for the treatment of CNS diseases” (Adamed SP. Z O.O., priority 2010, dated 2014) are inhibition and activation values, retold here.

Assay [1] has as its target serotoninergic 5-HT7 receptor (Homo sapiens, UniProt P34969). In words: Binding assay 5-HT7 (h), [3H]LSD, CHO cells. The note with it: read-out: 5-HT7. More on the design: expressed in transfected cells; host or cells: CHO cells. Summed up: (§1)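 Specific ligand binding was taken as total minus non-specific binding, with the latter defined in the presence of surplus unlabelled ligand. Each compound was tested at a single 1×10^−6 M concentration.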

The target of assay [2] is T1, serotonine transporter (SERT) receptor (Homo sapiens, UniProt P31645).
T1 construct: expressed in transfected cells; host or cells: CHO cells
Briefly: Binding assay SERT (h), [3H]imipramine, CHO cells. The following applies: read-out: SERT [%]. Summed up: as §1

Assay [3] concerns the target T2, muscarinic M3 receptor (Homo sapiens, UniProt P20309).
T2 construct: expressed in transfected cells; host or cells: CHO cells
In words: Binding assay M3 (h), [3H]4-DAMP, CHO cells. The following applies: read-out: M3 [%]. Summed up:
as §1

Assay [4] has as its target dopaminergic D3 receptor (Homo sapiens, UniProt P35462). Briefly: Cellular functional assay, dopaminergic D3 receptor (agonism/antagonism). The following applies: for inhibition at 1 µM: CHO, read-out: D3-antag. [%]; for activation at 1 µM: agonist effect, percent of control specific agonist response (300 nM dopamine for control), 1×10^−6 M, D3 (h), CHO cells, read-out: D3-ag [%]. The format is cell-based. The protocol:
(§2) The compounds were tested at the concentration of 1×10^−6M.
(§3) In the Tables ag refers to agonism, and antag to antagonism).

In assay [5] the target is T3, adrenergic α2C receptor (Homo sapiens, UniProt P18825).
T3 sequence (P18825 1-462): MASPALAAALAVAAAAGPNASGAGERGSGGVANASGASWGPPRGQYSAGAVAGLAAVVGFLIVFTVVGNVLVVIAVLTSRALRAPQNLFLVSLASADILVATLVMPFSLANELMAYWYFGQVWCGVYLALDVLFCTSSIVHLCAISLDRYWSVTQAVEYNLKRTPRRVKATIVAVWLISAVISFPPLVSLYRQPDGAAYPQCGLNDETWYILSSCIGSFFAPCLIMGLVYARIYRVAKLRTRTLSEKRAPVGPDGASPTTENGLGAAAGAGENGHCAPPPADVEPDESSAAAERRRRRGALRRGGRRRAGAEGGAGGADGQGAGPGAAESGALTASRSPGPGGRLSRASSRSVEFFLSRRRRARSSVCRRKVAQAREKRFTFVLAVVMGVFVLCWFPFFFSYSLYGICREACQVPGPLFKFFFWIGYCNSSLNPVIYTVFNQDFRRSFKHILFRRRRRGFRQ
Briefly: Cellular functional assay, adrenergic α2C receptor (agonism/antagonism). In kind it is cell-based. The note with it: for activation at 1 µM: agonist effect, percent of control specific agonist response, compounds tested at 1×10^−6M, read-out: α2C −ag [%]; for inhibition at 1 µM: read-out: α2C −antag. [%]. The protocol:
as §2, §3

In assay [6] the target is histaminergic H1 receptor (Homo sapiens, UniProt P35367). In words: Binding assay H1 (h), [3H]pyrilamine, HEK-293 cells. More on the design: expressed in transfected cells; host or cells: HEK-293 cells. The note with it: read-out: H1 [%]. Summed up:
as §1

The target in assay [7] is T4, serotoninergic 5-HT6 receptor (Homo sapiens, UniProt P50406). In words: Binding assay 5-HT6 (h), [3H]LSD, CHO cells. More on the design: expressed in transfected cells; host or cells: CHO cells. The following applies: read-out: 5-HT6. Summed up:
as §1

For assay [8], the target named is T5, serotoninergic 5-HT1A receptor (Homo sapiens, UniProt P08908).
T5 sequence (P08908 1-422): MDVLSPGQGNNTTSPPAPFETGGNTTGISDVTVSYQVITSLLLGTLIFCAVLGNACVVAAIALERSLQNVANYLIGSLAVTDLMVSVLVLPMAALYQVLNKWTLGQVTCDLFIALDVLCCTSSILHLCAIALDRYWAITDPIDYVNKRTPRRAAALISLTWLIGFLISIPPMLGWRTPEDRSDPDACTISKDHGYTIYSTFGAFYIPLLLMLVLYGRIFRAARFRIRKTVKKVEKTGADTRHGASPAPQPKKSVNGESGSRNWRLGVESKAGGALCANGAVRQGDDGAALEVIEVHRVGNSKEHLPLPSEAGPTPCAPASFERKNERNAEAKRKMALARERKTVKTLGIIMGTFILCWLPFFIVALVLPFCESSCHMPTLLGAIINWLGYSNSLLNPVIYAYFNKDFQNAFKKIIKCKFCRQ
Briefly: Cellular functional assay, serotoninergic 5-HT1A receptor (agonism/antagonism). In kind it is cell-based. The note with it: for inhibition at 1 µM: CHO, read-out: 5-HT1A-antag. [%]; for activation at 1 µM: agonist effect, percent of control specific agonist response (100 nM 8-OH-DPAT for control), 1×10^−6 M, 5-HT1A (h), CHO cells, read-out: 5-HT1A-ag [%]. The protocol: as §2, §3

The target in assay [9] is dopaminergic D2 receptor (Homo sapiens, UniProt P14416). In words: Binding assay D2S (h), [3H]methyl-spiperone, HEK-293 cells. More on the design: expressed in transfected cells; host or cells: HEK-293 cells. The following applies: read-out: D2 [%]. Summed up: as §1
In assay [10] the target is T4, serotoninergic 5-HT6 receptor. In words: Cellular functional assay, serotoninergic 5-HT6 receptor (agonism/antagonism). The note with it: for activation at 1 µM: agonist effect, percent of control specific agonist response, compounds tested at 1×10^−6M, read-out: 5-HT6-ag [%]; for inhibition at 1 µM: read-out: 5-HT6-antag. [%]. In kind it is cell-based. The protocol:
as §2, §3

Assay [11] addresses T6, adrenergic α1A receptor (Homo sapiens, UniProt P35348).
T6 sequence (P35348 1-466): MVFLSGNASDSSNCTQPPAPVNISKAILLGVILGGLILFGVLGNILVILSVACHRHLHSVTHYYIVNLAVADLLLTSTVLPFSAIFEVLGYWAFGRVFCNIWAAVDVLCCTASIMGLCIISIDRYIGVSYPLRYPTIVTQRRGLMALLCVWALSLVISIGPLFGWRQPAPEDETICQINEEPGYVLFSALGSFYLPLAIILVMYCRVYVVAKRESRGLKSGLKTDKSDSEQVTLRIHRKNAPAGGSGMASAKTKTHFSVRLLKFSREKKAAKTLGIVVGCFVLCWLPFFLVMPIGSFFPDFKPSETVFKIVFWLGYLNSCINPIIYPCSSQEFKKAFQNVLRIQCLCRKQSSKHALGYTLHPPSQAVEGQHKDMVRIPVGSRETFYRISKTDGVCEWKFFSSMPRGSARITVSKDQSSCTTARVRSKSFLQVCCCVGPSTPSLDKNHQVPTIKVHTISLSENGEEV
Briefly: Cellular functional assay, adrenergic α1A receptor (agonism/antagonism). In kind it is cell-based. The following applies: for activation at 1 µM: agonist effect, percent of control specific agonist response, compounds tested at 1×10^−6M, read-out: α1A -ag [%]; for inhibition at 1 µM: read-out: α1A -antag. [%]. Summed up: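 Human receptors tested in cell-based functional format for both agonist and antagonist modes. Single compound concentration of 1×10^−6M.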

T1 sequence (P31645 whole entry): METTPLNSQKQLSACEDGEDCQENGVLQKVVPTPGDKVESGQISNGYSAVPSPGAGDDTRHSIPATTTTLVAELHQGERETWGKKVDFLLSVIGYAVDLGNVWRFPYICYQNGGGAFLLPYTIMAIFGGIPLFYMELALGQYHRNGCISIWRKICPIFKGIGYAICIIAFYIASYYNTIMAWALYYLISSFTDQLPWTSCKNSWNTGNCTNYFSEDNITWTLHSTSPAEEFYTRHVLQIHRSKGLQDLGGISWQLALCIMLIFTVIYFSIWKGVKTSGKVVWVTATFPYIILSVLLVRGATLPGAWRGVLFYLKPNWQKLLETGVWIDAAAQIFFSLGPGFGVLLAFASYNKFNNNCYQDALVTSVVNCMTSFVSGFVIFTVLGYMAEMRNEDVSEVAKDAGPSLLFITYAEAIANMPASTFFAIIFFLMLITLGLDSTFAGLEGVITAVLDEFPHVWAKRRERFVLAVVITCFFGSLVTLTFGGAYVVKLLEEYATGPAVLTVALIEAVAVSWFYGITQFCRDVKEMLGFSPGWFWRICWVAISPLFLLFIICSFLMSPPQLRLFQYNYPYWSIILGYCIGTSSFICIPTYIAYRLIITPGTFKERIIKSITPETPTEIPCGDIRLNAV
T2 sequence (P20309 whole entry): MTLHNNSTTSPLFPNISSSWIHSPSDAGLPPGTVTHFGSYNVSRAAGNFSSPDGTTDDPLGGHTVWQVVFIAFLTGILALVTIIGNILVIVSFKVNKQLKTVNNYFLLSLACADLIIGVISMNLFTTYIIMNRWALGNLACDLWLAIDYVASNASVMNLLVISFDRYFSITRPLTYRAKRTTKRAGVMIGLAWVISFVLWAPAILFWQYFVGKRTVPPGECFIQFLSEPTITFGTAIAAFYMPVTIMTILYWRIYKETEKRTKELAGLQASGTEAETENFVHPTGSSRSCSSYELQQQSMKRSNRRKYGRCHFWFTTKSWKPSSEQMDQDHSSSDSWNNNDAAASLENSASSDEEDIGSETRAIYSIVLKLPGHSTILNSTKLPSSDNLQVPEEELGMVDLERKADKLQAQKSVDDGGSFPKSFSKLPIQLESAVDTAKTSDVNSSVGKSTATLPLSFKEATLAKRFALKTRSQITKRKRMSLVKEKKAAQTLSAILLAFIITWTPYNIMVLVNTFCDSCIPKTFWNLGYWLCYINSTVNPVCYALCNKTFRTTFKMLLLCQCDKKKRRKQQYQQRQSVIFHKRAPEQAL
T4 sequence (P50406 whole entry): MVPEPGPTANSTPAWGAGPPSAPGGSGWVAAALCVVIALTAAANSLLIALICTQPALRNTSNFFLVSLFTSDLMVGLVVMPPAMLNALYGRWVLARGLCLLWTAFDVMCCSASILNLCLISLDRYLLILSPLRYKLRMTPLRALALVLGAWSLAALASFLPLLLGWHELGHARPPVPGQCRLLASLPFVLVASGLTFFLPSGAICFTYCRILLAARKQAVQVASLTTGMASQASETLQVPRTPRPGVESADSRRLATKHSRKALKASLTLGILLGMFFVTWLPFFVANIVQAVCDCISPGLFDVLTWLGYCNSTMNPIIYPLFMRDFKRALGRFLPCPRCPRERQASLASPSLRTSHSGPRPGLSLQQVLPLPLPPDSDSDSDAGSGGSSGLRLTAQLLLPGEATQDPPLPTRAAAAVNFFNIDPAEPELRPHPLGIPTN
serotoninergic 5-HT7 receptor, sequence (P34969 whole entry): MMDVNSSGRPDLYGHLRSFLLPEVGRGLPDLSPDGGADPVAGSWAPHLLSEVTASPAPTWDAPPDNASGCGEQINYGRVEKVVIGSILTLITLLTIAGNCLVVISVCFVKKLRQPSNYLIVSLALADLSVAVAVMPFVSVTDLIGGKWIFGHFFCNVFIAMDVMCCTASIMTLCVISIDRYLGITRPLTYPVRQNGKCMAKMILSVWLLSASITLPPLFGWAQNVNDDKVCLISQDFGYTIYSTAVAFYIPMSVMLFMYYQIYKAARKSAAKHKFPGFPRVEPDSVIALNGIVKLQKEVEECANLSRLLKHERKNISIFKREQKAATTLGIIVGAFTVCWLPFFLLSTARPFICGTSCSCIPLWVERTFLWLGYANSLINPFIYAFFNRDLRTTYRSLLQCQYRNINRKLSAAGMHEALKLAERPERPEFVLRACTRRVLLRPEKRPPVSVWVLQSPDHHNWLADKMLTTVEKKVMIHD
dopaminergic D2 receptor, sequence (P14416 1-414 isoform P14416-2): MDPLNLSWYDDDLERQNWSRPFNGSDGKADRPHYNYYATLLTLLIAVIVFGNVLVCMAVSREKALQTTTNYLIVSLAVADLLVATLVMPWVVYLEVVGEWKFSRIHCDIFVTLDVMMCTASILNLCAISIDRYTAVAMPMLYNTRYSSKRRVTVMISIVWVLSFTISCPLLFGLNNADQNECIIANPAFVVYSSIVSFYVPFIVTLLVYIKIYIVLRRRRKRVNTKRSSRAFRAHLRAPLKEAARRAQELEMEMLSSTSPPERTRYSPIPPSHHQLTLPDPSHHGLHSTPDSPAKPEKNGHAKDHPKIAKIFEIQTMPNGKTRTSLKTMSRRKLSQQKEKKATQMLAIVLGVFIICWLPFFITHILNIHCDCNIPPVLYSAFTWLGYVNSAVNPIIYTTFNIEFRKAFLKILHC
histaminergic H1 receptor, sequence (P35367 whole entry): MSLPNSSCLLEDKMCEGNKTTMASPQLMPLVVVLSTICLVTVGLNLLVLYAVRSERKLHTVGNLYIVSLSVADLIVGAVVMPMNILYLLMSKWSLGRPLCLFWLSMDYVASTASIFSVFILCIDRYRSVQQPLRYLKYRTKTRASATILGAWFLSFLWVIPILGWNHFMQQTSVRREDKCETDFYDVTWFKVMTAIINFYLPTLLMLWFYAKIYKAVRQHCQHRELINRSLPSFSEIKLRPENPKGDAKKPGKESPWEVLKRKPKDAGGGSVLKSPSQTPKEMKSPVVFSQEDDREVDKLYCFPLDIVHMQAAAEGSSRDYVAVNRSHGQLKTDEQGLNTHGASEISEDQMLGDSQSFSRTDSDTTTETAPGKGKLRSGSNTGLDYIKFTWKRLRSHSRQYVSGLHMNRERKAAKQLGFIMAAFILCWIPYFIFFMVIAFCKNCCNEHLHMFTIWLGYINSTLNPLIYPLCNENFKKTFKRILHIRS
dopaminergic D3 receptor, sequence (P35462 whole entry): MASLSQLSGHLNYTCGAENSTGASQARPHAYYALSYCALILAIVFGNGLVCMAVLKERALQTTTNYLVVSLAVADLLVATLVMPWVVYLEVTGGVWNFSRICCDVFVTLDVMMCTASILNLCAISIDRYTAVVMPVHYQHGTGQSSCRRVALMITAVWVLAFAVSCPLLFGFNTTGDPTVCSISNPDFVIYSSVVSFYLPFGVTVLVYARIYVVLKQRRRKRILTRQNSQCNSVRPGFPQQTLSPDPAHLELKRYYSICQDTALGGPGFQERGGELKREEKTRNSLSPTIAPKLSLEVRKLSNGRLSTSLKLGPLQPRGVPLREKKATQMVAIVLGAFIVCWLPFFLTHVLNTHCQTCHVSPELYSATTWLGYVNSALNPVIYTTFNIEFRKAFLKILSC

Turning to `O=S(=O)(NCCCCN1CCN(c2cccc3[nH]ccc23)CC1)c1ccc2cc(Cl)ccc2c1` [Compound 358, 6-Chloro-N-[4-[4-(1H-indol-4-yl)piperazin-1-yl]butyl]naphthalene-2-sulphonamide], the inhibition at 1 µM amounted to 94% in [1]; 40% in assay [2]; 17% in [3]; 35% in [4]; 48% in assay [5]; 74% in assay [6]. The inhibition at 1 µM in assay [7] amounted to 70%; in assay [8], 70%; in assay [9], 96%. The activation at 1 µM in [4] came to 47%; in assay [5] it was 28%; in assay [8], 22%.

Regarding `Cc1c(S(=O)(=O)NCCCCN2CCN(c3nsc4ccccc34)CC2)sc2ccc(F)cc12` [Compound 65, N-[4-[4-(1,2-Benzothiazol-3-yl)piperazin-1-yl]butyl]-5-fluoro-3-methylbenzothiophene-2-sulphonamide], the inhibition at 1 µM in assay [1] stood at 98%; in assay [2], 57%; in assay [3], 8%; in assay [10], 81%; in assay [11], 98%; in assay [5], 20%. In addition, the inhibition at 1 µM in [6] stood at 95%; in assay [7], 97%; in assay [8], 35%; in assay [9] it was 99%. Moreover, the activation at 1 µM was -1% in assay [10], 0% in [11], 8% in assay [5] and 9% in [8].

Consider `O=c1[nH]c2ccc(S(=O)(=O)NCCCCN3CCN(c4noc5ccccc45)CC3)cc2o1` [Compound 16, N-(4-(4-(1,2-Benzoxazol-3-yl)piperazin-1-yl)butyl)-2-oxo-3H-1,3-benzoxazole-6-sulphonamide], for which the inhibition at 1 µM in assay [1] was 99%; in assay [2] it was -3%; in assay [3], -1%; in [10], 50%; in assay [11], 100%; in [5], 9%. Besides, the inhibition at 1 µM in assay [6] came to 97%; in [7], 94%; in assay [8] it was 91%; in assay [9] it was 99%. The activation at 1 µM is 0% in [10], 0% in [11], -7% in assay [5] and -14% in [8].

For the molecule `O=c1[nH]c2cccc(N3CCN(CCCNS(=O)(=O)c4cccc5ccccc45)CC3)c2[nH]1` [Compound 423, N-[3-[4-(2-oxo-1,3-dihydrobenzimidazol-4-yl)piperazin-1-yl]propyl]naphthalene-1-sulphonamide], the inhibition at 1 µM is 88% in [1]; 25% in assay [2]; -1% in [3]; 70% in [11]; 22% in [4]; 16% in assay [6]. Further, the inhibition at 1 µM in assay [7] turned out to be 16%; in [8], 73%; in assay [9], 97%. For the same molecule, the activation at 1 µM in assay [11] is 16%; in assay [4] it was 70%; in assay [8], 35%.

In the case of `O=c1[nH]c2cccc(N3CCN(CCCNS(=O)(=O)c4ccc5ccccc5c4)CC3)c2[nH]1` [Compound 424, N-[3-[4-(2-oxo-1,3-dihydrobenzimidazol-4-yl)piperazin-1-yl]propyl]naphthalene-2-sulphonamide], the inhibition at 1 µM was 95% in [1]; -3% in assay [2]; 7% in assay [3]; 76% in assay [11]; 18% in assay [4]; 28% in assay [6]. The figures for the inhibition at 1 µM in assay [7], in assay [8] and in assay [9] were 69%, 75% and 97%, respectively. For the same molecule, the activation at 1 µM in [11] amounted to 39%; in assay [4], 70%; in [8], 23%.

In the case of `O=S(=O)(NCCCCN1CCN(c2cccc3[nH]ccc23)CC1)c1ccccc1` [Compound 27, N-{4-[4-(1H-Indol-4-yl)piperazin-1-yl]butyl}benzenesulphonamide], the inhibition at 1 µM in assay [1] is 92%; in assay [2], -3%; in [3] it was 46%; in assay [11] it was 100%; in [5], 31%; in [6], 27%. The results for the inhibition at 1 µM in [7], in assay [8] and in [9] were 34%, 48% and 90%, respectively. Further, the activation at 1 µM turned out to be 1% in [11], 3% in assay [5] and 56% in [8].

In the case of `O=S(=O)(NCCCCN1CCN(c2cccc3[nH]ccc23)CC1)c1cccc(F)c1` [Compound 28, 3-Fluoro-N-{4-[4-(1H-indol-4-yl)piperazin-1-yl]butyl}benzenesulphonamide], the inhibition at 1 µM was 92% in assay [1]; 53% in [2]; 50% in assay [3]; 53% in [10]; -2% in [4]; 27% in [5]. The inhibition at 1 µM came out at 57% in assay [6], 98% in assay [7], 27% in assay [8] and 98% in assay [9]. Besides, the activation at 1 µM in assay [10] stood at 0%; in assay [4] it was 59%; in assay [5], 4%; in assay [8], 63%.
